The assay deals with Hs700T human pancreatic adenocarcinoma cells. The assay is described as follows: Subcutaneous model of human pancreatic adenocarcinoma. The format is in vivo, NCR.nu/nu homozygous mice. Conditions: 5FU 35 mg/kg intraperitoneally, once weekly for 4 treatments. The procedure: This study was designed to test the dose-responsive anti-tumor data for an anti-LUCA2 antibody in a subcutaneous model of pancreatic cancer. Fluorouracil (5FU), a cytotoxic chemotherapy agent, was used as a positive control and tested to see if there was a cumulative effect with mu-anti-LUCA2 and 5FU.
Cultured Hs700T human pancreatic adenocarcinoma cells were trypsinized, washed in media, spun down and resuspended in media at 100 million cells per milliliter of media (5 million cells per 0.05 mL volume), then mixed in an equal volume of Matrigel® for a final injection volume of 0.1 mL. 72 NCR.nu/nu homozygous mice were dosed intraperitoneally during the study. The groups were (1) saline control at 0.2 mL, twice weekly for 10 treatments (2) mu-anti-LUCA2 antibody at 50 mg/kg, twice weekly for 10 treatments, (3) Fluorouracil (5FU) at 35 mg/kg, once weekly for 4 treatments, and (4) mu-anti-LUCA2 antibody at 50 mg/kg and 5FU at 35 mg/kg, twice weekly for 10 treatments.
Tumor growth over time was evaluated to determine anti-tumor activity. Tumors were palpable prior to initiation of therapy. Animals responding to antibody treatment were maintained after treatment cessation to determine time to tumor regrowth.

As to `O=c1[nH]cc(F)c(=O)[nH]1` [5FU, Fluorouracil], the “tumor volume inhibition compared to saline control” value is “approximately 21.5%”.

The values are drawn from patent US7847070B2, “LUCA2 and antibodies that bind thereto” (Raven biotechnologies, inc., priority 2005, dated 2010).
